Where a name gives a salt, the structure may show the parent alone.
The compounds below were run on platelet aggregation in response to collagen (human platelet-rich plasma) (assay: Inhibition of collagen-induced platelet aggregation in vitro (human platelet-rich plasma, photometric aggregometer)). Settings: 0.05 h, final concentration 100 μM, human PRP, 37°, 3 min incubation before collagen, just-maximal collagen dose, read-out: % Inhibition of the platelet aggregation response to collagen.
Type: cell-based
Experimental: The compounds of the Examples above were tested for their ability to inhibit platelet aggregation in vitro as follows:
Platelet-rich-plasma (PRP) is prepared by centrifuging the anti-coagulated blood at 180 g., for 12 minutes, at room temperature. Collagen (3×-bovine achilles tendon) is suspended in 0.9% (w/v) saline, using a commercially available mixer emulsifier. PRP was mixed with 0.1 volumes saline (control) or compound dissolved in saline and incubated at 37° for 3 minutes, before the addition of collagen. Water-insoluble compounds were added to PRP, dissolved in 0.005 volumes dimethylformamide, the solvent being included in controls when appropriate. The final concentration of each compound was 100 μM.
The activity of each compound was expressed as percentage inhibition of the aggregation response to a dose of collagen producing a just-maximal change in light transmission in control PRP.
`O=c1c2cc(Cl)ccc2sn1CCc1ccccn1` [Example 1, 5-Chloro-2[β-(2-pyridyl)ethyl]-1,2-benzisothiazol-3-one hydrochloride] gave an inhibition at 100 µM of 100%. In the case of `O=c1c2ccccc2sn1CCCCCCN1CC2CCC(CC2)C1` [Example 2, 2-[6-(3-azabicyclo[3.2.2]non-3-yl)-hexyl]-1,2-benzisothiazlol-3-one hydrochloride], the inhibition at 100 µM is reported as 100%. Compound `COc1cc2sn(CCc3ccccn3)c(=O)c2cc1OC` [Example 3, 5,6-Dimethoxy-2[β-(2-pyridyl)ethyl]-1,2-benzisothiazol-3-one] has an inhibition at 100 µM of 100%. For `O=c1c2ccccc2sn1CNc1ccccn1` [Example 4, 2-[2'-Pyridylaminomethyl]-1,2-benzisothiazol-3-one], the inhibition at 100 µM was 100%. `O=c1c2ccccc2sn1N1CCOCC1` [Example 5, 2-(morpholino)-1,2-benzisothiazol-3-one] was tested, and the inhibition at 100 µM was 100%. `O=c1c2cc(Cl)ccc2sn1-c1ccccn1` [Example 6] gave an inhibition at 100 µM of 100%. With `O=c1c2cc(Cl)ccc2sn1-c1ncccn1` [Example 7] the inhibition at 100 µM was 100%. `O=c1c2ccccc2sn1CCc1ccccn1` [Example 9, 2-(β-2'-pyridylethyl)-1,2-benzisothiazol-3-one hydrochloride] gave an inhibition at 100 µM of 100%. `Cc1ccc2sn(CCc3ccccn3)c(=O)c2c1` [Example 10, 5-methyl-2-(β-2'-pyridylethyl)-1,2-benzisothiazol-3-one hydrochloride] gave an inhibition at 100 µM of 100%. `O=c1c2ccc(Cl)cc2sn1CCc1ccccn1` [Example 11, 6-chloro-2-(β-2'-pyridylethyl)-1,2-benzisothiazol-3-one hydrochloride] showed an inhibition at 100 µM of 100%. In the case of `O=c1c2cc(Cl)c(Cl)cc2sn1CCc1ccccn1` [Example 12], the inhibition at 100 µM is reported as 100%. With `O=c1c2ccccc2sn1CCN1CC2CCC(CC2)C1` [Example 13, 2-β-(3-azabicyclo[3.2.2]non-3-yl)ethyl-1,2-benzisothiazol-3-one hydrochloride] the inhibition at 100 µM was 100%. `O=c1c2cc(Cl)c(Cl)cc2sn1CCN1CC2CCC(CC2)C1` [Example 14, 5,6-dichloro-2-β-(3-azabicyclo[3.2.2]non-3-yl)ethyl-1,2-benzisothiazol-3-one] gave an inhibition at 100 µM of 100%. Work on `COc1cc2sn(CCN3CC4CCC(CC4)C3)c(=O)c2cc1OC` [Example 15, 5,6-dimethoxy-2-β-(3-azabicyclo[3.2.2]non-3-yl)ethyl 1,2-benzisothiazol-3-one] yielded an inhibition at 100 µM of 92%. With `O=c1c2cc(Cl)c(Cl)cc2sn1CCN1CCCC1` [Example 16, 5,6-dichloro-2-β-(1-pyrrolidinyl)ethyl-1,2-benzisothiazol-3-one] the inhibition at 100 µM was 100%. `COc1cc2sn(CCN3CCCC3)c(=O)c2cc1OC` [Example 18] gave an inhibition at 100 µM of 91%. With `O=c1c2ccccc2sn1CCN1CCCCCC1` [Example 19, 2-β-(homopiperidin-1-yl)ethyl-1,2-benzisothiazol-3-one hydrochloride] the inhibition at 100 µM was 92%. `O=c1c2ccccc2sn1CCN1CCc2ccccc2C1` [Example 20, 2-β-(N-tetrahydroisoquinolylethyl)-1,2-benzisothiazol-3-one hydrochloride] was tested, and the inhibition at 100 µM was 100%. Compound `O=c1c2ccccc2sn1CCn1sc2ccccc2c1=O` [Example 21, 1,2-bis(1,2-benzisothiazol-3-on-2-yl)ethane] has an inhibition at 100 µM of 91%. With `O=c1c2ccccc2sn1CNc1ccncc1` [Example 23, 2-[4'-pyridylaminomethyl]-1,2-benzisothiazol-3-one] the inhibition at 100 µM was 23%. Compound `CC1CCCCN1CCn1sc2ccccc2c1=O` (stereo not shown) [Example 27] has an inhibition at 100 µM of 100%.

Same assay, conditions: Homo sapiens, 0.05 h, read-out: % Inhibition of the platelet aggregation response to collagen
In the case of `O=c1c2ccccc2sn1-c1nccs1` [Example 8, 2-(thiazol-2-yl)-1,2-benzisothiazol-3-one], the inhibition at 100 µM is reported as 100%.

From patent US4350702A, “Method of inhibiting platelet aggregation” (Beecham Group Limited, priority 1975, dated 1982)
